The target of experiment [1] is Phospholipase A2, pancreatic group IB (Sus scrofa). Briefly: Inhibitory activity against porcine pancreatic Phospholipase A2.
The target in experiment [2] is Phospholipase A2 group IB, pancreatic (Homo sapiens) (UniProt P04054). Briefly: Inhibitory activity against human pancreatic Phospholipase A2.

5 compounds from BindingDB's records for doi:10.1021/jm960486n (Eli Lilly, 1997) can be followed below.

Molecules are shown by their SMILES.

Sequence of Phospholipase A2 group IB, pancreatic (Homo sapiens) (P04054 whole entry, looked up): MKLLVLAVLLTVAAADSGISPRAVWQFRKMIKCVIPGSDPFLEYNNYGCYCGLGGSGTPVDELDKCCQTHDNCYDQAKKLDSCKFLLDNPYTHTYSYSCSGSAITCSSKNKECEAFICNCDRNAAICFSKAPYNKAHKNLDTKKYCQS

On to `Cc1c(CC(N)=O)c2cc(OCc3ccccc3C(=O)O)ccc2n1Cc1ccccc1` [2-(1-Benzyl-3-carbamoylmethyl-2-methyl-1H-indol-5-yloxymethyl)-benzoic acid], for which the IC50 (commonly the midpoint of a concentration-inhibition curve) was 7.5 µM in experiment [1] and 22.5 µM in experiment [2].
Consider `NC(=O)Cc1c(Br)n(Cc2ccccc2)c2ccc(OCCCC(=O)O)cc12` [4-(1-Benzyl-2-bromo-3-carbamoylmethyl-1H-indol-5-yloxy)-butyric acid], for which, in experiment [2], 15.9 µM corresponded to half-maximal inhibition (IC50).
As for `Cc1c(CC(N)=O)c2c(OCC(=O)O)cccc2n1Cc1ccccc1-c1ccccc1` [Sodium; (1-biphenyl-2-ylmethyl-3-carbamoylmethyl-2-methyl-1H-indol-4-yloxy)-acetate], the IC50 in experiment [1] turned out to be 0.014 µM; in experiment [2], 4.09 µM.
In the same order, the values of `Cc1c(CC(N)=O)c2c(OCC(=O)O)cccc2n1Cc1cccc(Cl)c1` [Sodium; [3-carbamoylmethyl-1-(3-chloro-benzyl)-2-methyl-1H-indol-4-yloxy]-acetate] are 0.02 µM and 1.2 µM.
For the compound `NC(=O)Cc1c(Br)n(Cc2ccccc2)c2ccc(OCCCP(=O)(O)O)cc12` [[3-(1-Benzyl-2-bromo-3-carbamoylmethyl-1H-indol-5-yloxy)-propyl]-phosphonic acid], the IC50 is 2.2 µM in experiment [1] and 6.2 µM in experiment [2].
